We go through 50 molecules from patent publication US6916812B2, “Alpha-aminoamide derivatives as melanocortin agonists” (Bristol-Myers Squibb Company, priority 2001, dated 2005).

The assay addresses T1, cloned human MC4R (Homo sapiens, UniProt P32245).
T1 construct: made in house; host or cells: Hi5 insect cells (baculovirus infection); membrane preparation
The experiment in a line: Membrane binding assay: competitive inhibition of [125I]NDP-α-MSH binding. The settings on record: for IC50: read-out: MC4R IC50; for inhibition at 10 µM: read-out: Displacement Rate (%) (at 10 μM).

Setting [1] is: at 10 μM, [125I]NDP-α-MSH displacement.

SMILES strings stand for the structures. Where two headings read alike, the source gives them in different places.

T1 sequence (P32245 whole entry): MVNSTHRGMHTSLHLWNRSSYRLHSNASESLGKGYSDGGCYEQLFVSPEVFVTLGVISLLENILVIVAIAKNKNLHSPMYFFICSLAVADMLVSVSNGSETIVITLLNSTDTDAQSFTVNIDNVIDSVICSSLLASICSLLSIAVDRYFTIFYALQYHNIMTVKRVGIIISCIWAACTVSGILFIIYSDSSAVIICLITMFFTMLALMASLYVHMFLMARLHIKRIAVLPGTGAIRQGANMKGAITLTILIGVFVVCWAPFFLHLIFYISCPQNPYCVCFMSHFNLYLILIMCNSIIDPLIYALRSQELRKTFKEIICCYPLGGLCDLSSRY

A word on the IC50: it is the concentration needed to halve the response being measured. Turning to `N[C@@H](Cc1ccc(OCCCc2ccc(OCc3ccccc3)cc2)cc1)C(=O)N1CCN(Cc2cccc(Cl)c2Cl)CC1` [Example 260], the IC50 was < 1.5 µM. The “Displacement Rate (%) (at 10 μM)” value under setting [1] is on record as “+++ (+++ = 91-100)”. On to `N[C@@H](Cc1ccc(OCc2ccccc2)cc1)C(=O)N1CCN(Cc2cn(Cc3ccccc3)c3ccccc23)CC1` [Example 87], for which the half-maximal inhibitory concentration (IC50) was < 1.5 µM. In addition, under setting [1], the inhibition at 10 µM was in the range of 91 to 100%. Turning to `N[C@@H](Cc1ccc(OCc2ccccc2)cc1)C(=O)N1CCCN(Cc2ccccc2Sc2ccc(Cl)cc2)CC1` [Example 2], the IC50 lay in the range of 1.5 to 3 µM. Under setting [1], the inhibition at 10 µM lay in the range of 91 to 100%. With `O=C([C@H](Cc1ccc(OCc2ccccc2)cc1)NCc1ccccc1)N1CCN(Cc2cccc(Cl)c2Cl)CC1` [Example 170], the half-inhibitory concentration (IC50) is > 3 µM. Also, the inhibition at 10 µM under setting [1] lay in the range of 71 to 90%.

As to `N[C@@H](Cc1ccc(Oc2ccccc2)cc1)C(=O)N1CCN(Cc2cccc(Cl)c2Cl)CC1` [Example 344], the 50% inhibitory concentration (IC50) is > 3 µM. Regarding `N[C@@H](Cc1ccc(OCc2ccc3ccccc3c2)cc1)C(=O)N1CCN(Cc2cccc(Cl)c2Cl)CC1` [Example 217], the half-inhibitory concentration (IC50) is < 1.5 µM. Further, under setting [1], the “Displacement Rate (%) (at 10 μM)” value is listed as “+++ (+++ = 91-100)”. In the case of `N[C@@H](Cc1ccc(OCc2ccccc2)cc1)C(=O)N1CCN(Cc2c3ccccc3cc3ccccc23)CC1` [Example 100], the inhibition at 10 µM is 91 to 100% and the half-maximal inhibitory concentration (IC50) was in the range of 1.5 to 3 µM. Turning to `CCCCCCCN1CCCN(C(=O)[C@@H](N)Cc2ccc(OCc3ccccc3)cc2)CC1` [Example 46], the half-inhibitory concentration (IC50) is > 3 µM. The inhibition at 10 µM under setting [1] was in the range of 35 to 70%. On the same counts, the results for `N[C@@H](Cc1ccc(OCc2ccccc2)cc1)C(=O)N1CCCN(Cc2ccc(-c3cccc([N+](=O)[O-])c3)o2)CC1` [Example 21] are 1.5 to 3 µM and 91 to 100%. `N[C@@H](Cc1ccc(Oc2ccc(Cl)c(Cl)c2)cc1)C(=O)N1CCN(Cc2cccc(Cl)c2Cl)CC1` [Example 346]: the 50% inhibitory concentration (IC50) lay within 1.5 to 3 µM. As for `N[C@@H](Cc1ccc(OCc2ccccc2)cc1)C(=O)N1CCN(Cc2ccccc2C(F)(F)F)CC1` [Example 94], the 50% inhibitory concentration (IC50) is 1.5 to 3 µM. Also, the inhibition at 10 µM under setting [1] fell in the range of 91 to 100%. `Cc1cccc(Oc2ccc(C[C@H](N)C(=O)N3CCN(Cc4cccc(Cl)c4Cl)CC3)cc2)c1` [Example 347]: the half-inhibitory concentration (IC50) lay in the range of 1.5 to 3 µM. For the molecule `CCCCN[C@@H](Cc1ccc(OCc2ccccc2)cc1)C(=O)N1CCN(Cc2cccc(Cl)c2Cl)CC1` [Example 169], the IC50 is < 1.5 µM. For the same molecule, the inhibition at 10 µM under setting [1] lay within 91 to 100%. Regarding `Cc1cccc(CN2CCN(C(=O)[C@@H](N)Cc3ccc(OCc4ccccc4)cc3)CC2)c1` [Example 144], the IC50 is > 3 µM. Further, the inhibition at 10 µM under setting [1] is 35 to 70%. Take `N[C@@H](Cc1ccc(-c2cccc3c2Sc2ccccc2O3)cc1)C(=O)N1CCN(Cc2cccc(Cl)c2Cl)CC1` [Example 335]: the inhibition at 10 µM fell in the range of 91 to 100% and the concentration for half-maximal inhibition (IC50) was < 1.5 µM. In the case of `N[C@@H](Cc1ccc(OCCc2cccc(F)c2)cc1)C(=O)N1CCN(Cc2cccc(Cl)c2Cl)CC1` [Example 240], the IC50 was < 1.5 µM. In addition, under setting [1], the “Displacement Rate (%) (at 10 μM)” value is reported as “+++ (+++ = 91-100)”. On to `N[C@@H](Cc1ccc(OCc2ccccc2)cc1)C(=O)N1CCCN(Cc2cn(Cc3ccccc3)c3ccccc23)CC1` [Example 9], for which the concentration for half-maximal inhibition (IC50) is < 1.5 µM. Moreover, the inhibition at 10 µM under setting [1] was 91 to 100%.

Take `CCCN[C@@H](Cc1ccc(OCc2ccccc2)cc1)C(=O)N1CCN(Cc2cccc(Cl)c2Cl)CC1` [Example 167]: the IC50 is < 1.5 µM. Also, under setting [1], the inhibition at 10 µM lay in the range of 91 to 100%.

With `CCc1ccc(-c2ccc(C[C@H](N)C(=O)N3CCN(Cc4cccc(Cl)c4Cl)CC3)cc2)cc1` [Example 291], the half-inhibitory concentration (IC50) is < 1.5 µM. The inhibition at 10 µM under setting [1] is 91 to 100%.

Turning to `N[C@@H](Cc1ccc(OCc2ccccc2)cc1)C(=O)N1CCCN(Cc2ccc3c(c2)Cc2ccccc2-3)CC1` [Example 10], the IC50 was 1.5 to 3 µM. In addition, under setting [1], the inhibition at 10 µM was 91 to 100%. With `N[C@@H](Cc1ccc(OCc2c(Cl)cccc2Cl)cc1)C(=O)N1CCN(Cc2cccc(Cl)c2Cl)CC1` [Example 226], the half-inhibitory concentration (IC50) lay in the range of 1.5 to 3 µM. Also, the “Displacement Rate (%) (at 10 μM)” value under setting [1] is listed as “++ (++ = 71-90)”. In the case of `N[C@@H](Cc1ccc(OCc2ccccc2)cc1)C(=O)N1CCN(Cc2cccc(Oc3cc(Cl)cc(Cl)c3)c2)CC1` [Example 86], the IC50 is < 1.5 µM. Under setting [1], the inhibition at 10 µM was 91 to 100%. For the molecule `CN(C)CCCN[C@@H](Cc1ccc(OCc2ccccc2)cc1)C(=O)N1CCN(Cc2cccc(Cl)c2Cl)CC1` [Example 174], the IC50 was < 1.5 µM. The inhibition at 10 µM under setting [1] was in the range of 91 to 100%. For the molecule `O=C([C@H](Cc1ccc(OCc2ccccc2)cc1)NCCN1CCCCC1)N1CCN(Cc2cccc(Cl)c2Cl)CC1` [Example 176], the 50% inhibitory concentration (IC50) was < 1.5 µM. The inhibition at 10 µM under setting [1] lay within 91 to 100%.

On to `COc1cc(OC)c(CN2CCCN(C(=O)[C@@H](N)Cc3ccc(OCc4ccccc4)cc3)CC2)cc1Br` [Example 31], for which the IC50 lay in the range of 1.5 to 3 µM. Further, under setting [1], the inhibition at 10 µM was in the range of 71 to 90%. For the molecule `N[C@@H](Cc1ccc(OCc2ccccc2)cc1)C(=O)N1CCCN(Cc2ccncc2)CC1` [Example 76], the half-maximal inhibitory concentration (IC50) was > 3 µM. Moreover, the inhibition at 10 µM under setting [1] was in the range of 35 to 70%.

Turning to `N[C@@H](Cc1ccc(OCc2ccccc2)cc1)C(=O)N1CCCN(Cc2cc([N+](=O)[O-])ccc2Cl)CC1` [Example 34], the inhibition at 10 µM lay in the range of 71 to 90% and the IC50 was > 3 µM.

Turning to `N[C@@H](Cc1ccc(OCCc2ccc(Br)cc2)cc1)C(=O)N1CCN(Cc2cccc(Cl)c2Cl)CC1` [Example 241], the IC50 is < 1.5 µM. Under setting [1], the “Displacement Rate (%) (at 10 μM)” value is on record as “+++ (+++ = 91-100)”. With `Cc1ccc(-c2ccc(C[C@H](N)C(=O)N3CCN(Cc4cccc(Cl)c4Cl)CC3)cc2)cc1` [Example 290], the half-inhibitory concentration (IC50) was < 1.5 µM. Under setting [1], the inhibition at 10 µM was in the range of 91 to 100%.

As to `Cc1ccsc1CN1CCN(C(=O)[C@@H](N)Cc2ccc(OCc3ccccc3)cc2)CC1` [Example 128], the IC50 is > 3 µM. The inhibition at 10 µM under setting [1] lay within 35 to 70%. On the same counts, the results for `N[C@@H](Cc1ccc(-c2cccc3ccccc23)cc1)C(=O)N1CCN(Cc2cccc(Cl)c2Cl)CC1` [Example 300] are < 1.5 µM and 91 to 100%. With `COc1cccc(COc2ccc(C[C@H](N)C(=O)N3CCN(Cc4cccc(Cl)c4Cl)CC3)cc2)c1OC` [Example 233], the IC50 is > 3 µM. Moreover, under setting [1], the “Displacement Rate (%) (at 10 μM)” value is listed as “+ (+ = 35-70)”. With `N[C@@H](Cc1ccc(-c2cccc([N+](=O)[O-])c2)cc1)C(=O)N1CCN(Cc2cccc(Cl)c2Cl)CC1` [Example 330], the IC50 was > 3 µM. For the same molecule, under setting [1], the inhibition at 10 µM was 71 to 90%. Turning to `N[C@@H](Cc1ccc(-c2ccc(Cl)c(Cl)c2)cc1)C(=O)N1CCN(Cc2cccc(Cl)c2Cl)CC1` [Example 294], the half-maximal inhibitory concentration (IC50) is < 1.5 µM. Further, the inhibition at 10 µM under setting [1] was in the range of 91 to 100%.

Take `N[C@@H](Cc1ccc(OCc2ccccc2)cc1)C(=O)N1CCN(Cc2cc(O)ccc2[N+](=O)[O-])CC1` [Example 148]: the inhibition at 10 µM lay within 35 to 70% and the half-inhibitory concentration (IC50) was > 3 µM.

With `CN[C@@H](Cc1ccc(OCc2ccccc2)cc1)C(=O)N1CCN(Cc2cccc(Cl)c2Cl)CC1` [Example 165], the IC50 is < 1.5 µM. As to `CN(CCCOc1ccc(C[C@H](N)C(=O)N2CCN(Cc3cccc(Cl)c3Cl)CC2)cc1)Cc1ccccc1` [Example 287], the IC50 was > 3 µM. In addition, under setting [1], the “Displacement Rate (%) (at 10 μM)” value is on record as “+ (+ = 35-70)”. For `N[C@@H](Cc1ccc(OCc2ccccc2)cc1)C(=O)N1CCN(Cc2ccccc2[N+](=O)[O-])CC1` [Example 111], the concentration for half-maximal inhibition (IC50) is > 3 µM. The inhibition at 10 µM under setting [1] is 71 to 90%. Regarding `CCOc1ccccc1COc1ccc(C[C@H](N)C(=O)N2CCN(Cc3cccc(Cl)c3Cl)CC2)cc1` [Example 221], the IC50 lay within 1.5 to 3 µM. Moreover, the “Displacement Rate (%) (at 10 μM)” value under setting [1] is recorded as “+++ (+++ = 91-100)”. Regarding `CC1CCC(N2CCCN(C(=O)[C@@H](N)Cc3ccc(OCc4ccccc4)cc3)CC2)CC1` (some centres unmarked) [Example 74], the IC50 was > 3 µM. Moreover, the inhibition at 10 µM under setting [1] was in the range of 35 to 70%. As to `N[C@@H](Cc1ccc(OCc2c3ccccc3cc3ccccc23)cc1)C(=O)N1CCN(Cc2cccc(Cl)c2Cl)CC1` [Example 232], the IC50 was > 3 µM. Further, under setting [1], the “Displacement Rate (%) (at 10 μM)” value is “++ (++ = 71-90)”.

Regarding `N[C@@H](Cc1ccc(-c2ccc(F)cc2)cc1)C(=O)N1CCN(Cc2cccc(Cl)c2Cl)CC1` [Example 296], the concentration for half-maximal inhibition (IC50) is < 1.5 µM. The inhibition at 10 µM under setting [1] is 91 to 100%.

As for `Cc1cccc(CN2CCCN(C(=O)[C@@H](N)Cc3ccc(OCc4ccccc4)cc3)CC2)c1` [Example 65], the IC50 is > 3 µM. Besides, under setting [1], the inhibition at 10 µM was 35 to 70%.

Turning to `COc1cc(COc2ccc(C[C@H](N)C(=O)N3CCN(Cc4cccc(Cl)c4Cl)CC3)cc2)cc(OC)c1OC` [Example 236], the “Displacement Rate (%) (at 10 μM)” value under setting [1] was “+ (+ = 35-70)”. As to `N[C@@H](Cc1ccc(OCc2cccc3ccccc23)cc1)C(=O)N1CCN(Cc2cccc(Cl)c2Cl)CC1` [Example 218], the concentration for half-maximal inhibition (IC50) fell in the range of 1.5 to 3 µM. The “Displacement Rate (%) (at 10 μM)” value under setting [1] was “+++ (+++ = 91-100)”.

For `N[C@@H](Cc1ccc(OCCc2ccccc2OCc2ccccc2)cc1)C(=O)N1CCN(Cc2cccc(Cl)c2Cl)CC1` [Example 252], the IC50 is < 1.5 µM. In addition, the “Displacement Rate (%) (at 10 μM)” value under setting [1] is listed as “+++ (+++ = 91-100)”. Take `N[C@@H](Cc1ccc(-c2ccc(Cl)cc2Cl)cc1)C(=O)N1CCN(Cc2cccc(Cl)c2Cl)CC1` [Example 307]: the IC50 is < 1.5 µM. The inhibition at 10 µM under setting [1] lay within 91 to 100%.

For `N[C@@H](Cc1ccc(OCc2ccccc2)cc1)C(=O)N1CCCN(Cc2cccc(Oc3cc(Cl)cc(Cl)c3)c2)CC1` [Example 4], the IC50 is < 1.5 µM. Moreover, the inhibition at 10 µM under setting [1] fell in the range of 91 to 100%. Regarding `COc1ccccc1-c1ccc(C[C@H](N)C(=O)N2CCN(Cc3cccc(Cl)c3Cl)CC2)cc1` [Example 326], the IC50 was 1.5 to 3 µM. Moreover, the inhibition at 10 µM under setting [1] is 71 to 90%. As for `N[C@@H](Cc1ccc(OCc2ccccc2)cc1)C(=O)N1CCN(C2CCN(CCc3ccccc3)CC2)CC1` [Example 139], the IC50 lay within 1.5 to 3 µM. Under setting [1], the inhibition at 10 µM fell in the range of 35 to 70%.
